Measured values taken from US10183944B2 (Asana Biosciences, LLC, priority 2011, dated 2019).
pIC50: −log10 of the molar value. Where a name gives a salt, the structure may show the parent alone.

Legend:
[1] = molecular target: Syk (356-635 amino acids) catalytic domain (Homo sapiens (Human), UniProt P43405); test: Inhibition of enzymatic Syk kinase activity (radiometric); assay type: biochemical; settings: read-out: IC50 Syk
Source text: The objective of this assay was to examine by radiometric method the ability of compounds to inhibit Syk kinase enzyme. Syk is capable of phosphorylating substrates such as VAV, LAT, SLP-76, which in turn activate MAPK, PLCγ signaling pathways. […] This in vitro assay tests the ability of syk to phosphorylate a substrate peptide in the presence of ATP. By using a radio-labeled form of ATP, it is possible to measure the amount of phosphorylation of the substrate. The enzyme transfers a radio-labeled phosphate group from γ32 P labeled ATP to pG4T. Briefly the enzyme was incubated with substrate, radio-labeled & cold ATP and substrate in buffer with or without compounds. At the end of the reaction, the reaction mixture was transferred on to a Multiscreen filter plate and unreacted γ^32P ATP was washed off. The filter plate was dried and the radioactivity was measured on a scintillation counter to estimate the incorporated radioactivity on the substrate. The percent inhibition of activity of the enzyme was calculated by comparing counts in the presence and absence of compounds. […] 2.5 μL of 10% DMSO or compound in 10% DMSO was added to the wells in a 96 well V-bottom plate. Optimized concentration of in-house Syk enzyme (different batches of Syk (356-635) kinase domain) were used at optimized concentrations) ranging from 0.035 ng to 7.5 ng/reaction diluted in assay buffer was added to a total volume of 12.5 μL). Compound and protein were incubated for 30 minutes at room temperature on a plate shaker. Ten μL of a substrate mix containing 100 μM ATP (0.25 μL), γ-P^32-ATP (0.1 μL; 10 μCi/μL), pG4T (0.25 μL; 10 mg/mL) and 1× assay buffer (9.4 μL) was added to all the wells. Samples were incubated at 30° C. for 10 minutes after mixing. The reaction was stopped by the addition of 8N HCl (13 μL) containing 100 mM ATP. Thirty μL of sample was transferred to the center of a 2×2 cm^2 Whatman® P81 chromatography paper. After allowing the sample to dry for one minute, the assay squares were washed 3 times for 5 minutes each in ortho-phosphoric acid (0.5%) and once in acetone. Assay squares were dried for 15 minutes in a 30° C. oven and transferred to 96 well optiplate. Microscint-O® reagent (100 μL, Perkin Elmer) was added to each well, the plate was sealed with Topseal®-A microplates and incubated for 10 minutes at room temperature at very low speed on rocker and the plate was read in the Topcount® NXL instrument. The following calculations were made: Fold induction=radioactivity counts (uncorrected values) in positive control/substrate control.

[2] = molecular target: JAK2 (Homo sapiens (Human), UniProt O60674); test: Inhibition of enzymatic JAK2 kinase activity (TR-FRET); assay type: biochemical; settings: read-out: IC50 JAK
Source text: The objective of this assay was to screen compounds in a Time-resolved fluorescence resonance energy transfer (TR-FRET) Enzymatic assay method for their potential to inhibit JAK2 (Janus kinase) activity.
TR-FRET assays are homogeneous proximity assays where Eu-labeled antiphosphotyrosine antibody binds to the phosphorylated substrates labeled with Ulight fluorescence acceptor. Eu can transfer energy to Ulight accepter in the complex and the interaction of two dye-labeled binding partners is detected by the energy transfer between a donor and an acceptor dye, and the subsequent light emission by the acceptor dye. The intensity of the light emission is proportional to the level of Ulight peptide phosphorylation.
Two μL of 10% DMSO in blank, substrate control and positive control wells and 2 μL of test compound in test wells was added. Thirteen μL of assay buffer in blank and substrate control wells and 13 μL of Enzyme buffer mix in positive and test wells was added. The reaction mixture was incubated for 30 minutes at RT on a plate shaker. Ultra Light-pGT substrate (5 μL) [poly Glu-Tyr (4:1) labeled with U Light TM dye, a tyrosine kinase substrate] and ATP mix was added to all wells. The reaction plate was incubated for 60 minutes at RT on a plate shaker. The reaction was stopped by adding 40 mM EDTA (10 μL) in buffer. Ten μL of antibody was added to all the wells. The plate was read in a Wallac® 1420 Multilabel Counter Victor 3 instrument (Ex: 340 nm Em: 615 & 665 nm) The following calculations were made:
F@ 665 Value-Buffer blank
F@ 615 Value-Buffer blank
Ratio of F@665/F@615-Substrate Blank
% Activity=(Test Sample/Positive control)*100%
Inhibition=(100−% Activity)

JAK2, sequence (O60674 808-1132): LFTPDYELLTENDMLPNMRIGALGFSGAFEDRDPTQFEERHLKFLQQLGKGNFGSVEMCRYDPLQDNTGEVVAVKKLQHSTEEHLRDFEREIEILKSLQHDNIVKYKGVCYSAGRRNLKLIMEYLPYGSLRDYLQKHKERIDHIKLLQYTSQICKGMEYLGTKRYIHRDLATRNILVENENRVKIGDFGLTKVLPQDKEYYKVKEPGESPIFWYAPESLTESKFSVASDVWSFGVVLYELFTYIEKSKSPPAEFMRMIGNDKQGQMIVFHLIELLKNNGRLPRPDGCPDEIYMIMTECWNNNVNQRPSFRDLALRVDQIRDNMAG

| pIC50 [1] | pIC50 [2] | Compound |
| --- | --- | --- |
| > 7.30 | > 7.30 | COC1CCN(c2ccc(Nc3nc(N4CCCCCC4)nc4cn[nH]c(=O)c34)cc2)CC1 [Example 288, 2-(azepan-1-yl)-4-((4-(4-methoxypiperidin-1-yl)phenyl)amino) pyrimido[4,5-d]pyridazin-5(6H)-one] |
| > 8.00 | > 8.00 | NC(=O)CC1CCN(c2ccc(Nc3nc(N4CCCCCC4)nc4cn[nH]c(=O)c34)cc2)CC1 [Example 105, 2-(1-(4-((2-(azepan-1-yl)-5-oxo-5,6-dihydropyrimido[4,5-d]pyridazin-4-yl)amino)phenyl)piperidin-4-yl)acetamide] |
| > 7.30 | > 8.00 | O=C(O)C1CC12CCN(c1ccc(Nc3nc(N4CCCCCC4)nc4cn[nH]c(=O)c34)cn1)CC2 (stereo not drawn) [Example 134] |
| > 7.00 | > 7.00 | CN(C)c1nc(Nc2ccc(CN3CCNCC3)cc2)c2c(=O)[nH]ncc2n1 [Example 49, 2-(dimethylamino)-4-((4-(piperazin-1-ylmethyl)phenyl)amino)pyrimido[4,5-d]pyridazin-5(6H)-one hydrochloride] |
| > 8.00 | > 8.00 | CC(C)(C(=O)O)N1CCN(c2ccc(Nc3nc(N4CCCCCC4)nc4cn[nH]c(=O)c34)cc2)CC1 [Example 140, 2-(4-(4-((2-(azepan-1-yl)-5-oxo-5,6-dihydropyrimido[4,5-d]pyridazin-4-yl)amino)phenyl)piperazin-1-yl)-2-methylpropanoic acid] |
| < 7.00 | < 7.00 | O=C(O)C1CCN(c2nc(Nc3ccc(CN4CCNCC4)cc3)c3c(=O)[nH]ncc3n2)CC1 [Example 51, 1-(5-oxo-4-((4-(piperazin-1-ylmethyl)phenyl)amino)-5,6-dihydropyrimido[4,5-d]pyridazin-2-yl)piperidine-4-carboxylic acid hydrochloride] |
| > 7.30 | < 7.00 | CC(C)(C(=O)O)C1CCN(c2ccc(Nc3nc(-c4ccccc4)nc4cn[nH]c(=O)c34)cc2)CC1 [Example 143, 2-methyl-2-(1-(4-((5-oxo-2-phenyl-5,6-dihydropyrimido[4,5-d]pyridazin-4-yl)amino)phenyl)piperidin-4-yl)propanoic acid] |
| > 7.30 | > 7.30 | O=C(O)Cn1nnc(-c2ccc(Nc3nc(N4CCCCCC4)nc4cn[nH]c(=O)c34)cc2)n1 [Example 235, 2-(5-(4-((2-(azepan-1-yl)-5-oxo-5,6-dihydropyrimido[4,5-d]pyridazin-4-yl)amino)phenyl)-2H-tetrazol-2-yl)acetic acid] |
| > 7.30 | > 8.00 | O=C(O)C1CC12CCN(c1ccc(Nc3nc(C4CCCCC4)nc4cn[nH]c(=O)c34)cc1)CC2 (stereo not drawn) [Example 79, 6-(4-((2-cyclohexyl-5-oxo-5,6-dihydropyrimido[4,5-d]pyridazin-4-yl)amino)phenyl)-6-azaspiro[2.5]octane-1-carboxylic acid] |
| > 7.30 | > 7.30 | N#CCC1CCN(c2nc(Nc3ccc(OCCCO)cc3)c3c(=O)[nH]ncc3n2)CC1 [Example 295, 2-(1-(4-((4-(3-hydroxypropoxy)phenyl)amino)-5-oxo-5,6-dihydropyrimido[4,5-d]pyridazin-2-yl)piperidin-4-yl) acetonitrile] |
| > 8.00 | > 8.00 | O=C(O)C1CC12CCN(c1ccc(Nc3nc(N4CCCCCC4)nc4cn[nH]c(=O)c34)cc1F)CC2 (stereo not drawn) [Example 135, 6-(4-((2-(azepan-1-yl)-5-oxo-5,6-dihydropyrimido[4,5-d]pyridazin-4-yl)amino)-2-fluorophenyl)-6-azaspiro[2.5]octane-1-carboxylic acid] |
| > 7.30 | > 7.30 | O=c1[nH]ncc2nc(N3CCCCCC3)nc(Nc3ccc(OCCCN4CCNCC4)cc3)c12 [Example 136, 2-(azepan-1-yl)-4-((4-(3-(piperazin-1-yl)propoxy)phenyl)amino)pyrimido[4,5-d]pyridazin-5(6H)-one] |
| > 7.30 | < 7.00 | NC(=O)CC1CCN(c2ccc(Nc3nc(-c4ccccc4)nc4cn[nH]c(=O)c34)cn2)CC1 [Example 102, 2-(1-(5-((5-oxo-2-phenyl-5,6-dihydropyrimido[4,5-d]pyridazin-4-yl)amino)pyridin-2-yl)piperidin-4-yl) acetamide] |
| < 7.00 | < 7.00 | O=c1[nH]ncc2nc(-c3ccc(CN4CCOCC4)cc3)nc(Nc3ccc(CN4CCNCC4)cc3)c12 [Example 55, 2-(4-(morpholinomethyl)phenyl)-4-((4-(piperazin-1-ylmethyl)phenyl)amino) pyrimido[4,5-d]pyridazin-5(6H)-one hydrochloride] |
| > 7.00 | > 7.30 | O=C(O)C1CC12CCN(c1ccc(Nc3nc(-c4ccccc4)nc4cn[nH]c(=O)c34)cc1)CC2 (stereo not drawn) [Example 22, sodium 6-(4-(5-oxo-2-phenyl-5,6-dihydropyrimido[4,5-d]pyridazin-4-ylamino)phenyl)-6-azaspiro[2.5]octane-1-carboxylate] |
| > 7.30 | > 7.30 | O=c1[nH]ncc2nc(N3CCCCCC3)nc(Nc3ccc(N4CCC(O)CC4)nc3)c12 [Example 217, 2-(azepan-1-yl)-4-((6-(4-hydroxypiperidin-1-yl)pyridin-3-yl)amino)pyrimido[4,5-d]pyridazin-5(6H)-one] |
| > 8.00 |  | N#CCC1CCN(c2nc(Nc3ccc(N4CCN(CCN)CC4)cc3)c3c(=O)[nH]ncc3n2)CC1 [Example 257, 2-(1-(4-((4-(4-(2-aminoethyl)piperazin-1-yl)phenyl)amino)-5-oxo-5,6-dihydropyrimido[4,5-d]pyridazin-2-yl)piperidin-4-yl)acetonitrile] |
| < 7.00 |  | O=c1[nH]ncc2nc(N3CCCCCC3)nc(Nc3cccc(CO)c3)c12 [Example 310, 2-(azepan-1-yl)-4-((3-(hydroxymethyl)phenyl)amino)pyrimido[4,5-d]pyridazin-5(6H)-one] |
| < 7.00 |  | N#CCC1CCN(c2nc(Nc3ccc(-c4nnn(CC(=O)O)n4)cc3)c3c(=O)[nH]ncc3n2)CC1 [Example 241, 2-(5-(4-((2-(4-(cyanomethyl)piperidin-1-yl)-5-oxo-5,6-dihydropyrimido[4,5-d]pyridazin-4-yl)amino)phenyl)-2H-tetrazol-2-yl)acetic acid] |
| < 7.00 |  | CC1CN(c2nc(Nc3ccc(OCCN4CCNCC4)cc3)c3c(=O)[nH]ncc3n2)CC(C)O1 (stereo not drawn) [Example 177, 2-(2,6-dimethylmorpholino)-4-((4-(2-(piperazin-1-yl)ethoxy)phenyl)amino) pyrimido[4,5-d]pyridazin-5(6H)-one] |
| < 7.00 |  | COc1cc(Nc2nc(N3CCCCCC3)nc3cn[nH]c(=O)c23)cc(OC)c1OC [Example 67, 2-(azepan-1-yl)-4-((3,4,5-trimethoxyphenyl)amino)pyrimido[4,5-d]pyridazin-5(6H)-one] |

| Compound | pIC50 [1] | pIC50 [2] |
| --- | --- | --- |
| CCN1CCN(CCc2ccc(Nc3nc(N4CCC(CC#N)CC4)nc4cn[nH]c(=O)c34)cc2)CC1 [Example 197, 2-(1-(4-((4-(2-(4-ethylpiperazin-1-yl)ethyl)phenyl)amino)-5-oxo-5,6-dihydropyrimido[4,5-d]pyridazin-2-yl)piperidin-4-yl)acetonitrile] | > 8.00 | > 8.00 |
